Where “and” joins values, the source holds several entries; their conditions need not be identical. Equal entries are not always repeated. Where two headings read alike, the source gives them in different places.

The values below come from US20220380341A1, “INHIBITORS OF HIV-1 NEF FOR THE TREATMENT OF HIV DISEASE” (priority 2018, published 2022).

Series [1] deals with TZM-bl cell line. In kind it is cell-based. To be noted: human, 1 μM. The essentials:
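Read-out is luciferase from an integrated HIV-1 LTR reporter in TZM-bl cells, 48 h after HIV-1NL4-3 infection in the presence of 1 μM compound. Scale set by DMSO-treated wild-type-infected cells (0%) and Nef-defective virus (100% Nef-dependent effect). Cell Titer Blue measures cytotoxicity without virus.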

Series [2] has as its system uninfected PBMCs. The format is cell-based. The following applies: human. The method, then:
(§1) FIG. 4. Inhibition of HIV-1 replication by compounds disclosed herein in PBMCs. Donor PBMCs were infected with HIV-1 in the presence of inhibitor concentrations ranging from 1 to 1,000 nM or the DMSO carrier solvent as a negative control (0.1% DMSO final). Replication was assessed by p24 Gag AlphaLISA (Perkin Elmer) […]. Each donor was also infected with Nef-defective HIV-1 to establish the baseline for Nef-dependent enhancement of replication in each culture. Cytotoxicity was assessed in uninfected PBMCs over the same incubation period using the CellTiter-Blue assay (Promega). Data were fit by non-linear regression analysis (GraphPad Prism v.7.04) to determine the IC50 and CC50 values shown.
(§2) Non-HLA-typed buffy coats (Source: Pittsburgh Central Blood Bank, #E3755) are received and processed within 24 hours of blood donation. PBMCs are isolated via rocking for RBC separation following 1:1 dilution with PBS, followed by Ficoll gradient centrifugation. The lymphocyte fraction is removed and washed several times for a final concentration of ˜150-300×10^6 cells per donor. Cells are activated for 3 days with 1-5 μg/mL PHA (Sigma) and 50 U/mL IL-2. Cells are plated at 750,000 cells/ml and viability is checked at day 3 using the Cell Titer Blue assay (Promega). If cells are >90% viable, then they are infected with HIV-1 NL4-3, wild-type or Δ-Nef mutant (input typically 30-500 pg/mL p24 capsid equivalents) in the presence or absence of Nef inhibitor analogs. IL-2 is included in the media at the time of infection. After 4 days, cells are lysed with 1% Triton X-100 for 1.5 h, checked for viability via Cell Titer Blue, and frozen/stored at −20° C. HIV-1 replication is assessed with a high-sensitivity HIV-1 p24 AlphaLISA assay (Perkin Elmer) in ½-volume 96-well plates, using one-half of the recommended assay volumes for all reagents (including samples). Assays are read on the BioTek Cytation5 instrument; readout is in AlphaUnits and replication in p24 pg/mL is determined using an HIV-1 p24 capsid protein standard included in the Alpha kit.

Series [3] has as its target T1, HIV-1 Nef SF2 (Human immunodeficiency virus type 1 group M subtype B, UniProt P03407).
T1 construct: made in house
The series can be described thus: biochemical. To be noted: two-step induced-fit model, Reichert SPR, read-out: Reichert SPR Nef SF2 (M) two-step fitting. In kind it is binding.

Series [4] deals with Nef from SIV (strain mac239) (Simian immunodeficiency virus, UniProt Q5QGG3). The series can be described thus: biochemical.
Series [5] addresses HIV-1 NefNL4-3 (Human immunodeficiency virus type 1 group M subtype B, UniProt P03406, A33V/T15A/T51N/V11I). Briefly: Surface plasmon resonance binding to recombinant full-length Nef (NL4-3). The following applies: for T, minutes (residence time): 2-step induced fit, T = 1/koff2; for RU30/RUNef (extent of binding): response units at 30 μM relative to Nef immobilized on the SPR chip.

Series [6] has as its system HIV-1NL4-3. Briefly: HIV-1 infectivity assay in TZM-bl reporter cell line (LTR-luciferase, 48 h). To be noted: for inhibition at 1 µM: Human immunodeficiency virus 1, TZM-bl. In kind it is cell-based. The method, boiled down:
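Nef-dependent infectivity in TZM-bl cells: HIV-1NL4-3 infection with 1 μM compound, luciferase read at 48 h, normalized against DMSO wild-type and Nef-defective controls. Compound cytotoxicity in uninfected cells measured by Cell Titer Blue.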

Series [7] deals with HIV-1 NL4-3. Briefly: HIV-1 replication in normal donor PBMCs (p24 Gag AlphaLISA). In kind it is cell-based. To be noted: Table 1, 4 days, words (Not active, Borderline) where no bound is given. The method, then: as §1
The tables also show data for HIV-1 Replication in normal donor peripheral blood mononuclear cells (PBMCs), which is assay is conducted as follows:
as §2

Setting [8] is: KD, M, Table 4, SPR fit 2-step induced fit, KD = koff/kon × koff2/(koff2 + kon2).
The mark [9] stands for this setting: Nef NL4-3 Binding, SPR 2-state fitting KD, Table 1, 2-step induced-fit model.
[10] abbreviates: Reichert SPR Nef NL43 (M) two-step fitting, KD, two-step induced-fit model, Reichert SPR, Table 3.
Where [11] appears, read: read-out: Nef NL4-3 Binding, SPR 1:1 or 2-site fitting KD2, Table 1, 2-site fit, second component.
[12] abbreviates: 1.0 μM, TZM-bl reporter cell line, Table 4, read-out: % Infectivity Inhibition.
[13] abbreviates: 1 μM, TZM-bl, normalized: DMSO wild-type HIV-1 = 0%, Nef-defective HIV-1 = 100%, read-out: HIV-1 Infectivity % Inhibition norm. to Δ-Nef @ 1 μM.
[14] abbreviates: 48 h, Table 1, TZM-bl cells, 1 μM, 48 h, 100% = Nef-defective HIV-1, read-out: HIV-1 Infectivity % Inhibition Norm. to Δ-Nef @ 1 μM.

`Oc1c(CCc2ccncc2)c(-c2ccc(C(F)(F)F)cc2)nn1-c1nc2ccccc2[nH]1` [Compound I-101, 1-(1H-1,3-benzodiazol-2-yl)-4-[2-(pyridin-4-yl)ethyl]-3-[4-(trifluoromethyl)phenyl]-1H-pyrazol-5-ol]: in series [1], the “% Cell Viability” value came to 76.3%. For the same molecule, the “Toxicity % Viability @ 1 μM (TZM-bl)” value in series [1] is listed as 76.3%. Further, the “Toxicity in HIV Replication PBMC (Toxic @ concentration)” value (from here on “Toxicity in HIV Replication PBMC”) in series [2] was “Toxic @ 1 μM”. The Kd in series [3] stood at 1.43e-10 M; in series [4] it was 25.4 nM; in series [5] it was 1.77e-06 M; in series [5] (setting [8]), 2.91e-10 M; in series [5] (setting [9]), 2.91e-10 M; in series [5] (setting [10]) it was 2.91e-10 M. In series [5] (setting [11]), the Kd is 1.47e-05 M. In series [5] (Table 1, 1:1 Langmuir fit where the KD2 cell says '1 to 1 fitting', else 2-site fit), the “Nef NL4-3 Binding, SPR 1:1 or 2-site fitting KD1” value is listed as “No Interaction”. Further, in series [5] (Table 4), the “T, minutes (residence time)” value is on record as 7.00E + 04 minutes. Also, the “RU30/RUNef (extent of binding)” value in series [5] was 1.33E- 02. Besides, the inhibition at 1 µM in series [6] (setting [12]) came to 100%; in series [6] (setting [13]), 128%. In addition, the “HIV-1 Infectivity % Inhibition Norm. to Δ-Nef @ 1 μM” value in series [6] (Table 1, TZM-bl cells, 1 μM, 48 h, 100% = Nef-defective HIV-1) is given as 78.5%. The same molecule yielded an IC50 in series [7] (Human immunodeficiency virus 1, NL43, PBMC, 96 h) not above 1 nM.

For the molecule `CS(=O)(=O)c1ccc(-c2nn(-c3nc4ccccc4[nH]3)c(O)c2CCc2ccc(F)cc2)cc1` [Compound I-148, 1-(1H-1,3-benzodiazol-2-yl)-4-[2-(4-fluorophenyl)ethyl]-3-(4-methanesulfonylphenyl)-1H-pyrazol-5-ol], the “% Cell Viability” value in series [1] was 75.5%. The “Percent Viability @ 1 μM (TZM-bl cells)” value in series [1] is given as 75.5%. The “Toxicity in HIV Replication PBMC” value in series [2] is “Toxic @ 1 μM”. For the same molecule, the Kd in series [3] came out at 2.07e-11 M; in series [4], 1.08 nM; in series [5], 6.56e-07 M; in series [5] (setting [8]) it was 3.33e-10 M; in series [5] (Nef NL4-3 Binding, SPR 1:1 or 2-site fitting KD2, Table 1, 2-site fit, second component), 1.77e-06 M; in series [5] (setting [9]), 3.33e-10 M. Besides, the Kd in series [5] (setting [10]) came to 3.33e-10 M. For the same molecule, the “T, minutes (residence time)” value in series [5] (Table 4) came out at 3.26E + 04 minutes. Also, the “RU30/RUNef (extent of binding)” value in series [5] is on record as 1.32E- 02. The inhibition at 1 µM in series [6] (setting [12]), in series [6] (setting [13]) and in series [6] (setting [14]) was 98.1% throughout. Besides, in series [7], the “HIV Replication PBMC IC50 vs. HIV NL4-3” value is listed as “Not active”.

For `CC(C)(C)OC(=O)N1CCC(CCc2c(-c3ccc(S(C)(=O)=O)cc3)nn(-c3nc4ccccc4[nH]3)c2O)CC1` [Compound I-201, tert-butyl 4-{2-[1-(1H-1,3-benzodiazol-2-yl)-5-hydroxy-3-(4-methanesulfonylphenyl)-1H-pyrazol-4-yl]ethyl}piperidine-1-carboxylate], the “% Cell Viability” value in series [1] is recorded as 70.5%. Also, the “Toxicity % Viability @ 1 μM (TZM-bl)” value in series [1] was 70.5%. Further, in series [2], the “Toxicity in HIV Replication PBMC” value is reported as “Toxic @ 1 μM”. Besides, the Kd in series [3] was 5.01e-07 M; in series [4], 23.8 nM; in series [5] (setting [8]), 3.94e-07 M; in series [5] (setting [9]) it was 3.94e-07 M and 1.93e-06 M; in series [5] (setting [10]), 3.94e-07 M. The “T, minutes (residence time)” value in series [5] (Table 4) came out at 2.62E + 01 minutes. In series [5], the “RU30/RUNef (extent of binding)” value came to 1.83E- 02. The inhibition at 1 µM in series [6] (setting [12]) and in series [6] (setting [13]) was 53.4% throughout. Further, the “HIV Replication PBMC IC50 vs. HIV NL4-3” value in series [7] is on record as “Not active”.

Regarding `CC(C)OC(=O)N1CCC(c2nn(-c3nc4cc(Cl)ccc4[nH]3)c(O)c2CCC2CCOCC2)CC1` [Compound I-701, propan-2-yl4-[1-(5-chloro-1H-1,3-benzodiazol-2-yl)-5-hydroxy-4-[2-(oxan-4-yl)ethy1]-1H-pyrazol-3-yl]piperidine-1-carboxylate], in series [1], the “% Cell Viability” value is 98.7%. In series [1], the “Percent Viability @ 1 μM (TZM-bl cells)” value was 98.7%. Besides, the “Toxicity in HIV Replication PBMC” value in series [2] is recorded as “Toxic @ 10 nM”. Moreover, the Kd in series [3] came to 1.37e-07 M; in series [4] it was 19300 nM; in series [5], 2.64e-08 M; in series [5] (setting [8]) it was 2.88e-06 M; in series [5] (setting [9]), 2.88e-06 M; in series [5] (setting [10]) it was 2.88e-06 M. Further, the Kd in series [5] (setting [11]) worked out at 4.02e-06 M. Also, the “T, minutes (residence time)” value in series [5] (Table 4) worked out at 4.73E + 00 minutes. Further, in series [5], the “RU30/RUNef (extent of binding)” value was determined as 5.85E- 03. For the same molecule, the figures for the inhibition at 1 µM in series [6] (setting [12]), in series [6] (setting [13]) and in series [6] (setting [14]) were 100%, 106% and 106%, respectively.
